Calls of active or inactive are those of the source.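 Rule for the calls: active = plate Z score at or below -3, or inhibition of at least 30% at 20 µM; inactive = the rest.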
Experiment: compounds lowering EGFP fluorescence in F442A cells, dose response, counter-screen for p/CIP destabilizer project (AID 2005);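 note: cells express EGFP alone from a CMV promoter as a counter screen for p/CIP-EGFP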
Details: F442A EGFP cells, EGFP fluorescence, 16 h, stronger effect = higher value

| Structure (SMILES) | inhibition (EGFP decrease, at 10 µM) [%] | inhibition (at 20 µM) |
| --- | --- | --- |
| COCCN(CC(=O)NC1CCCCC1)C(=O)CSc1nc2ccccc2o1 | 7.4 | 28.7% (inactive) |
| O=C(NNS(=O)(=O)c1ccc(F)cc1)C1CCN(S(=O)(=O)c2ccccc2)CC1 | -22.3 | -6.1% (inactive) |
| CCOc1ccc(C(=O)N2CCc3cc(OC)c(OC)cc3C2)cc1OCC | 9.7 | 4.7% (inactive) |
| O=C(COC(=O)c1cnccn1)c1ccc(OC(=O)c2ccccc2)cc1 | 21 | 17% (inactive) |
| CC(Nc1cc(N2CCN(S(=O)(=O)N(C)C)CC2)ccc1[N+](=O)[O-])c1ccccc1 (stereo not drawn) | 7.3 | 23.9% (inactive) |
| Cc1cc(C)n(/N=C/c2ccccc2O)c(=O)c1 | 20.8 | 9.9% (inactive) |
| CC(C)[C@H](NC(=O)c1ccc(F)cc1)C(=O)NC1=NCCS1 | 21.6 | 2.2% (inactive) |
| CN(C)N=C1c2cc(S(=O)(=O)N(C)C)ccc2-c2ccc(S(=O)(=O)N(C)C)cc21 | 2.3 | 6.6% (inactive) |
| O=c1c2ccccc2nc(-c2ccccc2)n1-c1ccncc1 | -29.4 | 24.7% (inactive) |
| COc1ccc(CNC(=O)C(C)Cc2ccccc2)cc1O (stereo not drawn) | 24.1 | 14.7% (inactive) |
| CCC1CCCCN1C(=O)NC(=O)c1ccccc1 (stereo not drawn) | 14.3 | 5.4% (inactive) |
| Cc1cc(=O)[nH]c(SCC(=O)O)c1C#N | 24 | 10.9% (inactive) |
| NC(=O)c1nsc(C(=O)N(CC(=O)NC2CCCC2)c2ccc(F)c(Cl)c2)c1N | -4.6 | 15.2% (inactive) |
| CCC1=[N+]([O-])C(C)(/C(C)=N\O)N(O)C1(C)C (stereo not drawn) | -2.6 | -11% (inactive) |
| S=C(NNC(=S)Nc1ccccc1)Nc1ccccc1 | -6.9 | 16.7% (inactive) |
| COc1ccc(CNC2CCCCC2)cc1 | 26 | 20.4% (inactive) |
| O=C(N/N=C/c1cccc(O)c1)c1ccc(COc2cccc3cccnc23)cc1 | 2.4 | 7.8% (inactive) |
| CC(C(=O)N1c2ccccc2CCc2ccccc21)n1nnc(-c2ccc(N(C)C)cc2)n1 (stereo not drawn) | 15.2 | 6.8% (inactive) |
| COc1ccc(NC(=O)N2CCn3c2nc2ccccc23)cc1 | 17.9 | 30.9% |
| O=c1ccn(Cc2ccccc2Cl)cc1 | 33.3 | 14.1% (inactive) |
| O=c1c(Br)c(Br)cnn1-c1ccccc1 | 14.6 | 29.7% (inactive) |
| CC(C)Cc1ccc(C(C)C(N)=NCCc2ccccc2)cc1 (stereo not drawn) | -6.4 | -4.2% (inactive) |
| Cc1cc2nnc(SCC(=O)N3CCOCC3)n2c2ccccc12 | 26.4 | 17.9% (inactive) |
| O=C(NCCc1cccc(F)c1)C1CCCN(c2nc3ccccc3s2)C1 (stereo not drawn) | 16.8 | 0.4% (inactive) |
| CC(=O)Nc1ccc(SCC(=O)Nc2ccccc2Oc2ccccc2)cc1 | 21.8 | 14.4% (inactive) |
| CCOC(=O)N1CCN(S(=O)(=O)c2cc(OCC)ccc2OCC)CC1 | -19.2 | 5.4% (inactive) |
| NC(=O)c1cccn(Cc2ccc(C(F)(F)F)cc2)c1=O | 6.5 | 5.4% (inactive) |

| Structure (SMILES) | inhibition (EGFP decrease, at 10 µM) [%] | inhibition (at 20 µM) |
| --- | --- | --- |
| Cc1ccccc1-n1ncc2c1CC(C)(C)CC2NC(=O)CCN1CCCCC1=O (stereo not drawn) | -9.2 | 12.3% (inactive) |
| Cc1ccc(-n2ncc(Br)c(Br)c2=O)cc1 | 9.4 | -1.3% (inactive) |
| O=C(c1cc(-c2ccccc2)on1)N1CCN(C(=O)c2ccco2)CC1 | 18.5 | 4.9% (inactive) |
| O=C(CN1CCN(Cc2ccccc2Cl)C1=O)NCc1ccco1 | 17.1 | 31.5% |
| CC1CC(C)CN(C(=O)c2ccc3c(c2NCCO)C(=O)c2ccccc2C3=O)C1 (stereo not drawn) | 12.8 | 7.9% (inactive) |
| Cc1ccc(SCC(=O)N(C)C2CCS(=O)(=O)C2)cc1 (stereo not drawn) | 17.7 | 28.3% (inactive) |
| COc1ccc(CNCCCSc2ncccn2)c(OC)c1 | 11.1 | 16.3% (inactive) |
| COC(=O)c1cc(NC(=O)CSc2nc(C)cc(=O)[nH]2)cc(C(=O)OC)c1 | 9.8 | 23.4% (inactive) |
| O=C1NC(Cc2c[nH]c3ccccc23)C(=O)N1CCOc1ccc(F)cc1 (stereo not drawn) | 11.9 | 9.1% (inactive) |
| Cc1ccc(NC2CCCN(C(=O)c3ccccc3-c3ncc[nH]3)C2)cc1C (stereo not drawn) | -12.3 | 21.4% (inactive) |
| Cc1ccccc1NC(=O)C1CCCN(C(=O)Nc2ccc(F)cc2)C1 (stereo not drawn) | 12.3 | 3.2% (inactive) |
| O=C(CCCOc1ccccc1)Nc1nncs1 | -15.9 | 22.7% (inactive) |
| O=c1c2ccccc2[nH]c2ccccc12 | 13.8 | 18.3% (inactive) |
| CC(=O)Nc1ccc(S(=O)(=O)NCc2cn3ccsc3n2)cc1 | 8.3 | 1% (inactive) |
| O=C(Cn1c(=O)[nH]c2ccccc2c1=O)N1CCN(c2cccc(Cl)c2)CC1 | 17.8 | 20.5% (inactive) |
| Cc1ccccc1Cn1c(C)nc2ccccc21 | 29.8 | 39% |
| COC(=O)Cn1cc(C(=O)c2cccs2)c2ccccc21 | 27.1 | 14.5% (inactive) |
| CC1(C)OC(=O)C(=CNC(CCC(N)=O)C(=O)O)C(=O)O1 (stereo not drawn) | -1.3 | 15.1% (inactive) |
| CC(C(=O)NC1=NCCS1)N1C(=O)C2CC=CCC2C1=O (stereo not drawn) | 20.2 | 27.7% (inactive) |
| S=c1[nH]nc(COc2ccccc2)n1/N=C/c1ccc(Cl)cc1Cl | 13.4 | 9.7% (inactive) |
| Cc1ccc(S(=O)(=O)N/N=C(\c2ccccc2)c2cccnc2)cc1 | 5.5 | 21.7% (inactive) |
| COc1ccccc1C(=O)NC(CCSC)C(=O)NC1CCCCCC1 (stereo not drawn) | 17.2 | 29.7% (inactive) |
| Cc1cccc(C)c1NC(=O)c1ccccc1C(=O)O | 18.1 | 20.4% (inactive) |
| O=C(OCC(=O)N1CCC(Cc2ccccc2)CC1)c1ccccc1 | -1.5 | -16% (inactive) |
| O=C(c1ccccc1)N1CCCC(c2nc3c(nnn3Cc3ccccc3)c(=O)[nH]2)C1 (stereo not drawn) | 32.3 | 16.2% (inactive) |
| CCN(C(=O)COC(=O)c1cc(NS(=O)(=O)c2ccc(Cl)c([N+](=O)[O-])c2)ccc1O)C1CCCCC1 | 13.6 | 6.6% (inactive) |
| N/C(=N\OC(=O)c1ccc(Cl)cc1Cl)c1ccccc1 | 10.4 | 1.3% (inactive) |

| Structure (SMILES) | inhibition (EGFP decrease, at 10 µM) [%] | inhibition (at 20 µM) |
| --- | --- | --- |
| Cc1cc(C)nc(Sc2ccc3nnc(C(F)(F)C(F)(F)C(F)(F)F)n3n2)n1 | 40.7 | 15.9% (inactive) |
| CCOC(=O)C1CCN(C(=O)c2cc(OCC)c(OCC)c(OCC)c2)CC1 | 10.4 | 24.3% (inactive) |
| Cc1ccccc1-c1cc2c(nn1)-c1ccccc1C2=O | 32.1 | 6.4% (inactive) |
| CC(OC(=O)c1cccc(-n2cnnn2)c1)C(=O)N(C)c1ccccc1 (stereo not drawn) | 23.3 | 6% (inactive) |
| Cc1noc(C)c1COC(=O)CNC(=O)c1cccc(F)c1 | 4 | -7.3% (inactive) |
| CCN(CC)C(=O)c1oc2ccc(S(=O)(=O)N3CC(C)CC(C)C3)cc2c1C (stereo not drawn) | 29.3 | 49.5% |
| N#Cc1cc(F)c(N2CCNCC2)cc1Cl | 13.5 | 6.7% (inactive) |
| Cc1ccc(NC(=S)Nc2cccc3cnccc23)cc1 | 2.1 | 26.8% (inactive) |
| Cn1c(NCc2ccco2)nc2c1c(=O)n(Cc1ccc(Cl)cc1)c(=O)n2C | 17.1 | 20.5% (inactive) |
| CC1=C(C(=O)OCc2ccccc2)C(c2ccc(C(F)(F)F)cc2)NC(=O)N1CCCCCC(=O)O (stereo not drawn) | -4.3 | -6% (inactive) |
| CS(=O)(=O)Nc1ccccc1C(=O)Nc1cc(Cl)cc(Cl)c1 | 19.6 | -18.3% (inactive) |
| O=C(Nc1ccnn1C1CCN(Cc2ccccc2OC(F)F)CC1)c1cccc(F)c1 | 26.5 | 37.8% |
| Cc1ccsc1C(=O)OCC(=O)N1CCc2ccccc2C1 | 5 | 13.3% (inactive) |
| CCOc1ccc(NC(=O)/C(=C\c2ccc(OC(C)=O)c(OC)c2)NC(C)=O)cc1 | 1.3 | -16.6% (inactive) |
| O=C(CS(=O)CC(=O)Nc1ccccc1-c1ccccc1)Nc1ccc(F)cc1 (stereo not drawn) | -0.9 | 13.9% (inactive) |
| COc1ccccc1NC(=S)NNC(=O)c1ccc(Cl)cc1Cl | -23.9 | 2% (inactive) |
| Cc1cc(C(=O)Nc2cccc(C)c2C)n(-c2ccccc2)n1 | -4.4 | 5.5% (inactive) |
| O=C(CN1CCCCC1)N/N=C/c1cccc(Cl)c1 | 13.5 | 17.4% (inactive) |
| Cc1ccc(S(=O)(=O)CCC(=O)OCC(=O)c2c[nH]c3ccccc23)cc1 | 10.1 | 19.8% (inactive) |
| COc1ccc2[nH]c(=O)c(-c3noc(-c4ccccc4)n3)cc2c1 | 22.9 | 9.8% (inactive) |
| Cc1cccc(N(CC(=O)NCCc2ccccc2)C(=O)c2csnn2)c1 | 4.8 | 17.2% (inactive) |
| CC(NC(=O)CN(C)CC(=O)Nc1ccc(F)c(F)c1F)c1ccccc1 (stereo not drawn) | 8 | -8.6% (inactive) |
| CCOC(=O)N1CCN(c2ccc(C(C)=O)cc2F)CC1 | 10.1 | -6.2% (inactive) |
| CC(C)C(=O)Nc1nnc(SCC(=O)NCc2cccs2)s1 | 11.1 | 12% (inactive) |
| CCCC(=O)c1c[nH]c(C(=O)NCCc2ccccn2)c1 | 20.5 | 29.1% (inactive) |

Reference: PubChem BioAssay AID2005 (Sanford-Burnham Center for Chemical Genomics, 2009)
